Assay results: US8343696B2, “Colored curable composition, fluorine-containing dipyrromethene compound and tautomer thereof, and fluorine-containing dipyrromethene metal complex and tautomer thereof, and color filter using the same and method for producing the color filter” (FUJIFILM Corporation, priority 2008, dated 2013)

Assays:
Type in all cases: physicochemical
[1] = Absorption spectrum in ethyl acetate solution (spectrophotometer UV-2400PC)
Procedure, shortened: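 Compounds dissolved in ethyl acetate and scanned on a UV-2400PC spectrophotometer to obtain λmax and molar absorption coefficient (ε). Absorbance at 450 nm reported after normalizing absorbance at λmax to 1.0.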

[2] = Heat resistance of coating film (color difference ΔEab before and after heating); conditions: 100° C. for 1 hour on hot plate
Procedure, shortened: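 Glass substrate coated with the colored resin composition undercoat was heated on a hot plate at 100 °C for 1 h. Color difference ΔEab before versus after heating measured spectrophotometrically and graded: A <6, B 6–10, C >10.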

[3] = Transmittance at 450 nm of the color filter; conditions: negative-working colored resist, 1.0 μm film; transmittance at λmax normalized to 2%
[4] = Storage stability of colored resist solution (precipitation after one month at room temperature); parameters: key: A: No precipitation was observed; B: Slight precipitation was observed; C: Precipitation was observed; conditions: negative-working colored resist solution, visual precipitation
Procedure, shortened: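 The resist solution was mixed with dipyrromethene complex dye Ia-12 to give a negative-working UV-curable colored composition. It was stored for one month at room temperature and precipitation was visually graded: A none, B slight, C observed.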

[5] = Light-fastness of coating film (color difference ΔEab before and after xenon lamp irradiation); conditions: xenon lamp 20,000 luxes for 10 hours (200,000 lux·h)
Procedure, shortened: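 Coated glass substrate bearing the colored resin film was exposed to a xenon lamp at 20,000 lux for 10 hours (200,000 lux·h); color difference ΔEab before vs after exposure was measured. Graded A (ΔEab <6), B (6–10), C (>10); lower ΔEab means better light-fastness.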

Which results are given for `Cc1c(C(=O)OC2C(C(C)(C)C)CC(C)CC2C(C)(C)C)c(NC(=O)c2ccccc2C(F)(F)F)[n]2c1C=C1C(c3ccccc3)=C(C#N)C(NC(=O)C(C)Sc3cc(C(=O)O)cc(C(=O)O)c3)=[N+]1[Zn-]2[OH]` (stereo not drawn) [Ia-12]?
maximum absorption wavelength (λmax) [1]: 560 nm; molar absorption coefficient (ε) [1]: 81,400; Abs value at 450 nm when normalized to Abs = 1.0 at λmax [1]: 0.0154; Heat resistance [2]: A (ΔEab value was less than 6); Transmittance at 450 nm [3]: A (Transmittance at 450 nm was 90% or more); Storage stability [4]: A; Light-fastness [5]: A (ΔEab value was less than 6)

Which “maximum absorption wavelength (λmax)” value [1] does the source give for `Cc1c(C(=O)OC2C(C(C)(C)C)CC(C)CC2C(C)(C)C)c(NC(=O)c2cccc(C(F)(F)F)c2)[n]([Zn][OH])c1C=C1N=C(NC(=O)C(C)(C)C)C(C#N)=C1c1ccccc1` (stereo not drawn) [Ia-14] here?
The value was 560 nm.

What about the “molar absorption coefficient (ε)” value [1] of the same compound?
Its value is 87,600.

What about the “Abs value at 450 nm when normalized to Abs = 1.0 at λmax” value (shortened to “Abs value at 450 nm when normalized”) [1] of the same compound?
The value was 0.0112.

And the Heat resistance [2]?
Its Heat resistance is “A (ΔEab value was less than 6)”.

What about the “Transmittance at 450 nm” value [3] of the same compound?
The value was “A (Transmittance at 450 nm was 90% or more)”.

What about the Storage stability [4] of the same compound?
The Storage stability was “A”.

What about the Light-fastness [5] of the same compound?
The Light-fastness was “A (ΔEab value was less than 6)”.

Which results are given for `CC1CC(C(C)(C)C)C(OC(=O)C2=C(c3ccccc3)C3=Cc4c(-c5ccccc5)c(C(=O)OC5C(C(C)(C)C)CC(C)CC5C(C)(C)C)c(NC(=O)c5ccc(OC(F)(F)F)cc5)[n]4[Zn-]([OH])[N+]3=C2NC(=O)c2ccc(OC(F)(F)F)cc2)C(C(C)(C)C)C1` (stereo not drawn) [IIb-8]?
maximum absorption wavelength (λmax) [1]: 561 nm; molar absorption coefficient (ε) [1]: 92,600; Abs value at 450 nm when normalized to Abs = 1.0 at λmax [1]: 0.0135; Heat resistance [2]: A (ΔEab value was less than 6); Transmittance at 450 nm [3]: A (Transmittance at 450 nm was 90% or more); Storage stability [4]: A; Light-fastness [5]: A (ΔEab value was less than 6)

With `Cc1c(C(=O)OC2C(C(C)(C)C)CC(C)CC2C(C)(C)C)c(NC(=O)c2cccc(C(F)(F)F)c2)[n]2c1C=C1C(c3ccccc3)=C(C#N)C(NC(=O)C(C)Sc3cc(C(=O)O)cc(C(=O)O)c3)=[N+]1[Zn-]2[OH]` (stereo not drawn) [Ia-15] as the compound, how does the “maximum absorption wavelength (λmax)” value [1] read?
Its value is 558 nm.

What about the “molar absorption coefficient (ε)” value [1] of the same compound?
The value was 91,000.

What about the “Abs value at 450 nm when normalized” value [1] of the same compound?
Its value is 0.091.

What about the Heat resistance [2] of the same compound?
Its Heat resistance is “A (ΔEab value was less than 6)”.

What about the “Transmittance at 450 nm” value [3] of the same compound?
Its value is “A (Transmittance at 450 nm was 90% or more)”.

What about the Storage stability [4] of the same compound?
Its Storage stability is “A”.

And the Light-fastness [5]?
The Light-fastness was “A (ΔEab value was less than 6)”.

Which “maximum absorption wavelength (λmax)” value [1] does the source give for `CC1CC(C(C)(C)C)C(OC(=O)C2=C(c3ccccc3)C3=Cc4c(-c5ccccc5)c(C(=O)OC5C(C(C)(C)C)CC(C)CC5C(C)(C)C)c(NC(=O)c5cc(C(F)(F)F)cc(C(F)(F)F)c5)[n]4[Zn-]([OH])[N+]3=C2NC(=O)c2cc(C(F)(F)F)cc(C(F)(F)F)c2)C(C(C)(C)C)C1` (stereo not drawn) [IIb-14] here?
The value was 560 nm.

And the “molar absorption coefficient (ε)” value [1]?
The value was 117,400.

What about the “Abs value at 450 nm when normalized” value [1] of the same compound?
Its value is 0.01.

What about the Heat resistance [2] of the same compound?
Its Heat resistance is “A (ΔEab value was less than 6)”.

And the “Transmittance at 450 nm” value [3]?
The value was “A (Transmittance at 450 nm was 90% or more)”.

What about the Storage stability [4] of the same compound?
Its Storage stability is “A”.

And the Light-fastness [5]?
Its Light-fastness is “A (ΔEab value was less than 6)”.

What does the source list for `CC1CC(C(C)(C)C)C(OC(=O)C2=C(c3ccccc3)C3=Cc4c(-c5ccccc5)c(C(=O)OC5C(C(C)(C)C)CC(C)CC5C(C)(C)C)c(NC(=O)c5ccc(C(F)(F)F)cc5)[n]4[Zn-]([OH])[N+]3=C2NC(=O)c2ccc(C(F)(F)F)cc2)C(C(C)(C)C)C1` (stereo not drawn) [IIb-7]?
maximum absorption wavelength (λmax) [1]: 563 nm; molar absorption coefficient (ε) [1]: 97,100; Abs value at 450 nm when normalized to Abs = 1.0 at λmax [1]: 0.0123; Heat resistance [2]: A (ΔEab value was less than 6); Transmittance at 450 nm [3]: A (Transmittance at 450 nm was 90% or more); Storage stability [4]: A; Light-fastness [5]: A (ΔEab value was less than 6)
